# Data: patent publication US12377152B2, “Compounds for degrading alpha-synuclein aggregates and uses thereof” (APRINOIA THERAPEUTICS LIMITED, priority 2019, dated 2025)
# Columns and labels:
# [1] = molecular target: α-synuclein aggregates (Homo sapiens (Human), UniProt P37840); experiment: ReNcell VM α-synuclein aggregation assay; format: cell-based; details: for DC50: ReNcell VM cells, read-out: Activity (DC50, concentration at which 50% of α-synuclein aggregates has been degraded); for inhibition of MJFR14 immunoreactivity: 24 hour treatment, differentiated ReNcell VM cells
# Experimental: The ReNcell VM α-synuclein aggregation assay was conducted at Charles River Laboratories (CRL). ReNcell VM is an immortalized human neural progenitor cell line derived from the ventral mesencephalon region of the brain. ReNcell VM cells were selected as in vitro cellular model for the α-synuclein aggregation assay, based on their growth features, differentiation potential into terminally differentiated neurons and amenability to adenoviral transduction. Aggregated human wild type α-synuclein was overexpressed through adenoviral delivery. Aggregated α-synuclein was detected with the aggregate-selective anti-α-synuclein antibody MJFR14 using immunocytochemistry; total α-synuclein levels were detected with Syn205 (α/β-synuclein-specific antibody).
# The ReNcell VM α-synuclein aggregation assay was applied for compound screening to identify compounds capable of degrading α-synuclein aggregates. […] Immunoreactivity toward aggregated (MJFR14) and total α-synuclein (Syn205) was quantified using high content-based segmentation of immunoactive areas in immunocytochemical images (performed with the IN Cell 2200 (GE Healthcare)), followed by quantification of immunofluorescent intensity (performed by CRL's developed algorithm using IN Cell Developer Toolbox software).
# Percentage effect (PE): Inhibition in comparison to BLANK (0.1% DMSO).
# PE=100−(signal of compound/average signal BLANK)×100
# Compound-induced cytotoxicity (% remaining cells)
# % remaining cells=(nuclei count of compound/average nuclei count of BLANK)×100
# [2] = molecular target: T1, α-synuclein (Homo sapiens (Human), UniProt P37840); experiment: PBB5 competition assay; format: binding; details: 2 μM α-synuclein, 0.26 μM PBB5, 37° C., 1 hour
# Experimental: (§1) (A) Expression and purification of recombinant wild-type human α-synuclein: 0.5 mM IPTG was used to induce production of wild type human α-synuclein by bacteria transformed with a full-length α-synuclein expression plasmid. After shaking at 16° C. for 20 hours, cell pellet was resuspended in lysis buffer (10 mM Tris, 1 mM EGTA, 0.75 mM NaCl, 1 mM PMSF, pH 7.5) and lysed by sonication followed by centrifugation (6000 g, 30 min, 4° C.). The supernatant was then boiled at 95° C. for 15 min with manual agitation by every 5 minutes, followed by centrifugation (6000 g, 30 min, 4° C.). Supernatant was dialyzed with (10 mM Tris, 1 mM EGTA, 50 mM NaCl, pH 7.5) buffer and concentrated with concentrator. The collected sample was loaded onto a Superdex200 column, the flow-through fraction was then loaded onto a Q-HP column. Collected fractions with α-synuclein eluates were pooled, concentrated and stored at −80° C.
# (§2) (B) Preparation of aggregated α-synuclein: 5 mg/mL of α-synuclein in PBS buffer (pH 7.4) was incubated in tube with at 37° C. with shaking (700 rpm) for 5-10 days.
# (D) PBB5 competition assay: 2 μM of α-synuclein was incubated with 0.26 μM 2-(4-(2-(methylamino)pyridine-5-yl)-1,3-butadiene-1-yl)benzothiazole-6-ol (PBB5) and serially diluted compound (three-fold serial dilution, from 10 to 0.001 μM) in a 96-well plate at 37° C. for 1 hour. Fluorescence intensity (excitation/emission=530/690 nm) of PBB5 was read by microplate spectrometer. Percentage of competition was calculated using the following equation: (Max−well of compound alone)/(Max−Min)*100%, where Max=(α-synuclein+PBB5) signals−(buffer+PBB5) signals; and Min=(buffer+PBB5) signals−(buffer+PBB5) signals. The IC50 value of each compound was calculated with GraphPad Prism software using the “4 Parameter Logistic Model or Sigmoidal Dose-Response Model”: Y=Bottom+(Top−Bottom)/(1+(IC50/X)^HillSlope)
# [3] = molecular target: T1, α-synuclein; experiment: In vitro fluorometric α-synuclein binding assay; details: 2 μM α-synuclein, 37° C., 1 hour, fluorescence
# Experimental: as §1, §2
# (C) In vitro fluorometric α-synuclein binding assays: 2 μM α-synuclein was incubated with serially diluted compound (three-fold serial dilutions, from 10 to 0.001 μM) in a 96-well plate at 37° C. for 1 hour. Fluorescence intensity was read by microplate spectrometer. Compound Kd values were calculated using the following equation: Y=Bmax*X/(Kd+X), where X is the concentration of compound; Y is the fluorescence signal of (compound+α-synuclein)−(compound+DMSO); and Bmax is the maximum signal.
Structure (SMILES),DC50 [1] [µM],inhibition of MJFR14 immunoreactivity [1],IC50 [2] [µM],Kd [3] [µM]
CN(C)c1ccc(-c2ccc(-c3nc4ccc(OCCOCCOc5ccc6c(c5)CN(C5CCC(=O)NC5=O)C6=O)cc4s3)cc2)cn1 (stereo not shown) [Compound 163123],> 10,–,> 10,0.26
COc1ccc2nc(-c3ccc(-c4ccnc(NCCCCCOc5ccc6c(c5)CN(C5CCC(=O)NC5=O)C6=O)c4)cc3)cn2c1 (stereo not shown) [Compound 165802],> 10,–,> 10,2.44
O=C1CCC(N2Cc3cc(OCCCCCNc4cc(-c5ccc(-c6nc7ccc(F)cc7s6)cc5)ccn4)ccc3C2=O)C(=O)N1 (stereo not shown) [Compound 165825],–,–,> 10,–
O=C1CCC(N2Cc3cc(OCCCC(=O)Nc4ccc(-c5ccc(-c6cc7ccncc7[nH]6)cc5)cn4)ccc3C2=O)C(=O)N1 (stereo not shown) [Compound 166099],> 10,–,0.04,5.63
COc1ccc2nc(-c3ccc(-c4ccnc(NCCOCCOc5ccc6c(c5)CN(C5CCC(=O)NC5=O)C6=O)c4)cc3)oc2c1 (stereo not shown) [Compound 166123],–,–,0.41,0.48
CN(C)c1ccc(-c2ccc(-c3nc4ccc(C(=O)OCCOCCOCCOc5ccc6c(c5)CN(C5CCC(=O)NC5=O)C6=O)cc4s3)cc2)cn1 (stereo not shown) [Compound 166124],–,–,0.03,0.34
CN(C)c1ccc(-c2ccc(-c3nc4c(OCCOCCOc5ccc6c(c5)CN(C5CCC(=O)NC5=O)C6=O)cccc4s3)cc2)cn1 (stereo not shown) [Compound 166330],> 10,–,2.6,0.59
O=C1CCC(N2Cc3cc(OCCOCCNc4cc(-c5ccc(-c6nc7ccc(F)cc7s6)c(C(F)(F)F)c5)ccn4)ccc3C2=O)C(=O)N1 (stereo not shown) [Compound 166965],–,–,10,0.22
O=C1CCC(N2Cc3cc(OCCOCCOc4ccc5nc(-c6ccc(-c7ccc(NC8CC8)nc7)cc6)sc5c4)ccc3C2=O)C(=O)N1 (stereo not shown) [Compound 177032],> 10,–,–,0.06
Cc1ncsc1-c1ccc(CNC(=O)[C@@H]2C[C@@H](O)CN2C(=O)[C@@H](NC(=O)COCCOCCNc2ccc3nc(-c4ccc(-c5ccc(N(C)C)nc5)cc4C(F)(F)F)sc3c2)C(C)(C)C)cc1 [Compound 180187],> 10,–,–,–
CN(C)c1ccc(-c2ccc(-c3nc4ccc(OCCOCCOc5cccc6c5C(=O)N(C5CCC(=O)NC5=O)C6=O)cc4s3)cc2)cn1 (stereo not shown) [Compound 180944],–,–,0.61,0.43
CN(C)c1ccc(-c2ccc(-c3nc4ccc(OCCOCCOc5cccc6c5CN(C5CCC(=O)NC5=O)C6=O)cc4s3)c(C(F)(F)F)c2)cn1 (stereo not shown) [Compound 180950],> 10,–,–,–
CN(C)c1ccc(-c2ccc(-c3nc4ccc(OCCCOc5ccc6c(c5)CN(C5CCC(=O)NC5=O)C6=O)cc4s3)cc2)cn1 (stereo not shown) [Compound 184605],> 10,–,–,–
CN(C)c1ccc(-c2ccc(-c3nc4ccc(NCCOCCOc5cccc6c5CN(C5CCC(=O)NC5=O)C6=O)cc4s3)c(C(F)(F)F)c2)cn1 (stereo not shown) [Compound 185563],> 10,–,–,–
CN(C)c1ccc(-c2ccc(-c3nc4ccc(OCCCCC(=O)Nc5cccc6c5CN(C5CCC(=O)NC5=O)C6=O)cc4s3)cc2)cn1 (stereo not shown) [Compound 189149],> 10,–,–,–
COc1ccc2nc(-c3ccc(-c4ccnc(NCCOCCOc5cccc6c5CN(C5CCC(=O)NC5=O)C6=O)c4)cc3)cn2c1 (stereo not shown) [Compound 190753],> 10,–,–,–

# Second part, led by results:
DC50 [1] [µM],inhibition of MJFR14 immunoreactivity [1],Structure (SMILES),IC50 [2] [µM],Kd [3] [µM]
0.9 to 10,–,CN(C)c1ccc2nc(-c3ccc(-c4ccc(NCCOCCN5C(=O)CCC(N6C(=O)c7ccc(O)cc7C6=O)C5=O)nc4)cc3)sc2c1 (stereo not shown) [Compound 170351],–,–
> 10,–,CN(C)c1ccc2nc(-c3ccc(-c4ccc(NCCOCCOc5ccc6c(c5)CN(C5CCC(=O)NC5=O)C6=O)nc4)cc3)sc2c1 (stereo not shown) [Compound 170352],–,–
> 10,–,CN(C)c1ccc2nc(-c3ccc(-c4ccc(NCCOCCOc5ccc6c(c5)C(=O)N(C5CCC(=O)NC5=O)C6=O)nc4)cc3)sc2c1 (stereo not shown) [Compound 170353],–,–
0.01 to 0.9,–,O=C1CCC(N2C(=O)c3ccc(OCCOCCNc4ccc(-c5ccc(-c6cc7ccncc7[nH]6)cc5)cn4)cc3C2=O)C(=O)N1 (stereo not shown) [Compound 170354],–,–
> 10,–,CN(C)c1ccc(-c2ccc(-c3nc4ccc(NCCOCCOCCOCCOCCOCCNc5cccc6c5C(=O)N(C5CCC(=O)NC5=O)C6=O)cc4s3)cc2)cn1 (stereo not shown) [Compound 170355],–,–
> 10,–,CN(C)c1ccc(-c2ccc(-c3nc4ccc(NCCOCCNc5cccc6c5C(=O)N(C5CCC(=O)NC5=O)C6=O)cc4s3)cc2)cn1 (stereo not shown) [Compound 170356],–,–
0.01 to 0.9,concentration-dependent inhibition,CN(C)c1ccc(-c2ccc(-c3nc4ccc(NC(=O)CCOCCOCCOc5ccc6c(c5)CN(C5CCC(=O)NC5=O)C6=O)cc4s3)cc2)cn1 (stereo not shown) [Compound 170357],–,–
> 10,–,CN(C)c1ccc(-c2ccc(-c3nc4ccc(NC(=O)CCOCCOc5ccc6c(c5)CN(C5CCC(=O)NC5=O)C6=O)cc4s3)cc2)cn1 (stereo not shown) [Compound 170358],–,–
> 10,–,CN(C)c1ccc(-c2ccc(-c3cn4cc(OCCOCCOc5ccc6c(c5)CN(C5CCC(=O)NC5=O)C6=O)ccc4n3)cc2)c(F)n1 (stereo not shown) [Compound 170450],–,–
> 10,–,CN(C)c1ccc(-c2ccc(-c3cn4cc(OCCCCCOc5ccc6c(c5)CN(C5CCC(=O)NC5=O)C6=O)ccc4n3)cc2)c(F)n1 (stereo not shown) [Compound 170451],–,–
> 10,–,CN(C)c1ccc(-c2ccc(-c3nc4ccc(NC(=O)CCCOc5ccc6c(c5)CN(C5CCC(=O)NC5=O)C6=O)cc4s3)cc2)cn1 (stereo not shown) [Compound 170742],–,–
> 10,–,CN(C)c1ccc(-c2ccc(-c3nc4ccc(OCCOCCOCCOc5ccc6c(c5)CN(C5CCC(=O)NC5=O)C6=O)cc4s3)c(C(F)(F)F)c2)cn1 (stereo not shown) [Compound 174251],–,–
> 10,–,CN(C)c1ccc(-c2ccc(-c3nc4ccc(OC(=O)CCOCCOc5ccc6c(c5)CN(C5CCC(=O)NC5=O)C6=O)cc4s3)cc2)cn1 (stereo not shown) [Compound 175552],–,–
> 10,–,CN(C)c1ccc2nc(-c3ccc(-c4ccc(NCCOCCOc5ccc6c(c5)CN(C5CCC(=O)NC5=O)C6=O)nc4)cc3C(F)(F)F)sc2c1 (stereo not shown) [Compound 177031],–,–
> 10,–,CN1C(=O)CCC(N2Cc3cc(OCCOCCOc4ccc5nc(-c6ccc(-c7ccc(N(C)C)nc7)cc6)sc5c4)ccc3C2=O)C1=O (stereo not shown) [Compound 177036],–,–
0.9 to 10,–,COc1ccc2nc(-c3ccc(-c4ccc(NCCOCCOc5ccc6c(c5)CN(C5CCC(=O)NC5=O)C6=O)nc4)cc3)cn2c1 (stereo not shown) [Compound 177037],–,–
> 10,–,COc1ccc2nc(-c3ccc(-c4ccc(NCCOCCOc5cccc6c5C(=O)N(C5CCC(=O)NC5=O)C6=O)nc4)cc3)sc2c1 (stereo not shown) [Compound 177038],–,–
> 10,–,COc1ccc2nc(-c3ccc(-c4ccc(NCCOCCOc5ccc6c(c5)CN(C5CCC(=O)NC5=O)C6=O)nc4)cc3)sc2c1 (stereo not shown) [Compound 177039],–,–
> 10,–,COc1ccc2nc(-c3ccc(-c4ccnc(NCCOCCOCC(=O)NC(C(=O)N5C[C@H](O)C[C@H]5C(=O)NCc5ccc(-c6scnc6C)cc5)C(C)(C)C)c4)cc3)cn2c1 (stereo partly shown) [Compound 177685],–,–
> 10,–,Cc1ncsc1-c1ccc(CNC(=O)[C@@H]2C[C@@H](O)CN2C(=O)[C@@H](NC(=O)COCCOCCOc2ccc3nc(-c4ccc(-c5ccc(N(C)C)nc5)cc4)sc3c2)C(C)(C)C)cc1 [Compound 178884],–,–
< 0.01,concentration-dependent inhibition,O=C1CCC(N2Cc3cc(OCCOCCNc4cc(-c5ccc(-c6nc7ccc(F)cc7s6)cc5)ccn4)ccc3C2=O)C(=O)N1 (stereo not shown) [Compound 180948],–,–
